Results as given in ChEMBL document CHEMBL3526130, “An evaluation of using rat-derived single-dose neuropharmacokinetic parameters to project accurately large animal unbound brain drug concentrations” (Drug Metab Dispos, 2012).

How the values were obtained:
Type in all cases: ADME, organism-based
[1] = AUC(0 to 7 hrs) in Sprague-Dawley rat plasma at 35 mg/kg, sc by LC-MS/MS analysis; design: time < 7 hr, dose 35 mg/kg, route subcutaneous
[2] = AUC(0 to infinity) in Sprague-Dawley rat plasma at 35 mg/kg, sc by LC-MS/MS analysis; design: time infinity, dose 35 mg/kg, route subcutaneous
[3] = AUC(0 to 7 hrs) in Sprague-Dawley rat cerebrospinal fluid at 35 mg/kg, sc by LC-MS/MS analysis; design: time < 7 hr, dose 35 mg/kg, route subcutaneous
[4] = AUC(0 to infinity) in Sprague-Dawley rat cerebrospinal fluid at 35 mg/kg, sc by LC-MS/MS analysis; design: dose 35 mg/kg, route subcutaneous, time infinity
[5] = test system: Nucleic Acid; test: Ratio of drug level in brain to plasma in Sprague-Dawley rat at 35 mg/kg, sc by LC-MS/MS analysis; design: dose 35 mg/kg, route subcutaneous
[6] = test system: Nucleic Acid; test: Ratio of drug level in cerebrospinal fluid to unbound plasma concentration in Sprague-Dawley rat at 35 mg/kg, sc by LC-MS/MS analysis; design: dose 35 mg/kg, route subcutaneous; details: in vivo
[7] = Ratio of unbound brain concentration to drug level in cerebrospinal fluid in Sprague-Dawley rat at 35 mg/kg, sc by LC-MS/MS analysis; design: dose 35 mg/kg, route subcutaneous; details: in vivo
[8] = Ratio of unbound drug level in brain to plasma in Sprague-Dawley rat at 35 mg/kg, sc by LC-MS/MS analysis; design: dose 35 mg/kg, route subcutaneous
[9] = AUC(0 to 7 hrs) in Sprague-Dawley rat brain at 35 mg/kg, sc by LC-MS/MS analysis; design: time < 7 hr, dose 35 mg/kg, route subcutaneous
[10] = AUC(0 to infinity) in Sprague-Dawley rat brain at 35 mg/kg, sc by LC-MS/MS analysis; design: dose 35 mg/kg, route subcutaneous, time infinity
[11] = AUC(0 to 7 hrs) in Sprague-Dawley rat plasma at 10 mg/kg, sc by LC-MS/MS analysis; design: time < 7 hr, dose 10 mg/kg, route subcutaneous
[12] = AUC(0 to infinity) in Sprague-Dawley rat plasma at 10 mg/kg, sc by LC-MS/MS analysis; design: dose 10 mg/kg, route subcutaneous, time infinity
[13] = AUC(0 to 7 hrs) in Sprague-Dawley rat cerebrospinal fluid at 10 mg/kg, sc by LC-MS/MS analysis; design: time < 7 hr, dose 10 mg/kg, route subcutaneous
[14] = AUC(0 to infinity) in Sprague-Dawley rat cerebrospinal fluid at 10 mg/kg, sc by LC-MS/MS analysis; design: time infinity, dose 10 mg/kg, route subcutaneous
[15] = Ratio of drug level in brain to plasma in Sprague-Dawley rat at 10 mg/kg, sc by LC-MS/MS analysis; design: dose 10 mg/kg, route subcutaneous; details: read-out: BPR
[16] = Ratio of unbound brain concentration to drug level in cerebrospinal fluid in Sprague-Dawley rat at 10 mg/kg, sc by LC-MS/MS analysis; design: dose 10 mg/kg, route subcutaneous; details: in vivo
[17] = Ratio of unbound drug level in brain to plasma in Sprague-Dawley rat at 10 mg/kg, sc by LC-MS/MS analysis; design: dose 10 mg/kg, route subcutaneous
[18] = AUC(0 to 7 hrs) in Sprague-Dawley rat brain at 10 mg/kg, sc by LC-MS/MS analysis; design: time < 7 hr, dose 10 mg/kg, route subcutaneous
[19] = AUC(0 to infinity) in Sprague-Dawley rat brain at 10 mg/kg, sc by LC-MS/MS analysis; design: time infinity, dose 10 mg/kg, route subcutaneous

Compound	AUC(0-t) at 7 h [1] [ng·h/mL]	AUC(0-inf) [2] [ng·h/mL]	AUC(0-t) at 7 h [3] [ng·h/mL]	AUC(0-inf) [4] [ng·h/mL]	BPR [5]	Ratio [6]	Ratio [7]	Kp uu [8]	AUC(0-t) at 7 h [9] [ng·h/mL]	AUC(0-inf) [10] [ng·h/mL]	AUC(0-t) at 7 h [11] [ng·h/mL]	AUC(0-inf) [12] [ng·h/mL]	AUC(0-t) at 7 h [13] [ng·h/mL]	AUC(0-inf) [14] [ng·h/mL]	Kp [15]	Ratio [16]	Kp uu [17]	AUC(0-t) at 7 h [18] [ng·h/mL]	AUC(0-inf) [19] [ng·h/mL]
C=C[C@H]1C[N@@]2CC[C@H]1C[C@@H]2[C@@H](O)c1ccnc2ccc(OC)cc12 [QUINIDINE]	4920	5310	302	304	0.38	0.23	0.22	0.05	1850	1880									
CN(C)CCCC1(c2ccc(F)cc2)OCc2cc(C#N)ccc21 (racemic) [CITALOPRAM]											930	958	401	421	13.4	0.89	1.08	12500	12900
